Experimental data from patent US6117878A, “8-phenyl- or 8-cycloalkyl xanthine antagonists of A2B human adenosine receptors” (priority 1998, dated 2000).
“Also recorded” adds a separate entry of the source.

Assays:
[1] = target: T1, recombinant human A1 adenosine receptors (Homo sapiens, UniProt P30542); experiment: Competition binding screen, A1 (Table 1)
T1 construct: expressed in transfected cells
T1 sequence (P30542 1-326): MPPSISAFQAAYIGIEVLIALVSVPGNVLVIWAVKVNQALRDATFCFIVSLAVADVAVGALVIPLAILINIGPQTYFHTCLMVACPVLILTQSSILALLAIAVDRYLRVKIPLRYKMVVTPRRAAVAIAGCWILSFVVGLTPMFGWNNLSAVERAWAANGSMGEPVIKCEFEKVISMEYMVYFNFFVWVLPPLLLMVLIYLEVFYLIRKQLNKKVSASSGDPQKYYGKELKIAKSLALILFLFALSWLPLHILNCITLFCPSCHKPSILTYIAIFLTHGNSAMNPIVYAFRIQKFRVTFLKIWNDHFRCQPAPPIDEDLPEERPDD
From the text: (§1) A series of compounds was screened to identify potent A2B selective antagonists. This was done in competition binding assays using recombinant human A1, A2A, A2B or A3 adenosine receptors, similar to that illustrated in FIGS. 2A and 2B.

[2] = target: T2, recombinant human A2A adenosine receptors (Homo sapiens, UniProt P29274); experiment: Competition binding screen, A2A (Table 1)
T2 construct: expressed in transfected cells
From the text: (§2) This was done in competition binding assays using recombinant human A1, A2A, A2B or A3 adenosine receptors, similar to that illustrated in FIGS. 2A and 2B.

[3] = target: T3, recombinant human A3 adenosine receptors (Homo sapiens, UniProt P0DMS8); experiment: Competition binding screen, A3 (Table 1)
T3 construct: expressed in transfected cells; host or cells: cells expressing the recombinant receptor
T3 sequence (P0DMS8 1-318): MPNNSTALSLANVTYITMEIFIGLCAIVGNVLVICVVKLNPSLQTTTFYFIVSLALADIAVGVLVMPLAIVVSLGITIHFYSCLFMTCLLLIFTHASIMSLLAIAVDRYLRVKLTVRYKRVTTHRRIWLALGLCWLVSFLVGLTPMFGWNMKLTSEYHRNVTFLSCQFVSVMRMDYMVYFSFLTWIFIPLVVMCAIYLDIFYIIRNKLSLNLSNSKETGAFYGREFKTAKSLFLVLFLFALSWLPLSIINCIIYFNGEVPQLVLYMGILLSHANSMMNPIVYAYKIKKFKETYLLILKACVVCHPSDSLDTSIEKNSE
From the text: as §1

[4] = target: T4, recombinant human A2B adenosine receptors (Homo sapiens, UniProt P29275); experiment: Competition binding screen, A2B (Table 1); design: expressed in transfected cells; host or cells: cells expressing the recombinant receptor
T4 sequence (P29275 1-332): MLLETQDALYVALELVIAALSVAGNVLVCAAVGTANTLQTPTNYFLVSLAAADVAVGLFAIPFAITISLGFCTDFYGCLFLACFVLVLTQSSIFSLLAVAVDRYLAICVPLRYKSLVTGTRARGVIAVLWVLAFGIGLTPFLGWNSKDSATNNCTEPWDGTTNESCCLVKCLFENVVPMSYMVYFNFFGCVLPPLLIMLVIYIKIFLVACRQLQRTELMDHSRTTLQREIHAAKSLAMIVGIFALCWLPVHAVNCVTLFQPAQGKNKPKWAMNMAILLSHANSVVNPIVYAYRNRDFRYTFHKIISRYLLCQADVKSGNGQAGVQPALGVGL
From the text: as §2

human HMC-1 mast cells [5] = experiment: Intracellular Ca2+ accumulation in HMC-1 mast cells (FURA); format: cell-based; conditions: FIG. 1A
human HMC-1 mast cells [6] = experiment: Cyclic AMP accumulation in HMC-1 mast cells (radioimmunoassay); format: cell-based; conditions: FIG. 1B
Method: Functional Responses Of Human HMC-1 Mast Cells to NECA and IB-MECA
In tests as described in "Canine Mast Cell Adenosine Receptors: Cloning and Expression of the A3 Receptor and Evidence that Degranulation is Mediated by the A2B Receptor," Molecular Pharmacology, 52:1-15 (1997) to, Auchampapch et al., that reference being incorporated herein by reference, intact cells were treated with the A3-selective agonist IB-MECA and the nonselective agonist NECA.
FIGS. 1A and 1B show (A) Intracellular Ca^2+ accumulation measured in cells pretreated with the Ca^2+ -sensitive fluorescent reporter, FURA and (B) Cyclic AMP accumulation measured by radioimmunoassay. The results are typical of triplicate experiments.

[7] = target: T5, rhA2B adenosine receptors (Homo sapiens, UniProt P29275); experiment: NECA-stimulated cyclic AMP accumulation in HEK 293 cells transfected with rhA2B adenosine receptors, Schild analysis; format: cell-based; conditions: cAMP, cells expressing rhA2B
T5 construct: expressed in transfected cells; host or cells: HEK 293 cells, stably transfected
T5 sequence (P29275 1-332): T4 sequence (P29275 1-332)
From the text: Agonists were used to modulate cAMP in HEK 293 cells stably transfected the rhA2B adenosine receptors or rhA3 adenosine receptors.

[8] = target: T4, recombinant human A2B adenosine receptors; experiment: Calcium mobilization in HEK-293 cells transfected with recombinant human A2B adenosine receptors (FURA); format: cell-based; design: expressed in transfected cells; host or cells: cells expressing the recombinant receptor
Method: The activation of the phospholipase C pathway leads to intracellular calcium mobilization.
Calcium mobilization was measured in cells preloaded with FURA.

[9] = target: T4, recombinant human A2B adenosine receptors; experiment: IP3 generation in HEK 293 cells transfected with recombinant human A2B adenosine receptors
[10] = target: T3, recombinant human A3 adenosine receptors; experiment: Competition radioligand binding to rhA3 adenosine receptors (Example 2); conditions: other subtypes than A2B; FIG. 2 and Table 1
adenosine receptors = conditions: cited from earlier work
[11] = target: T4, recombinant human A2B adenosine receptors; experiment: Competition for [3H]DPX binding to rhA2B adenosine receptors (Example 2); design: expressed in transfected cells; host or cells: cells expressing the recombinant receptor

T2 sequence (P29274 whole entry): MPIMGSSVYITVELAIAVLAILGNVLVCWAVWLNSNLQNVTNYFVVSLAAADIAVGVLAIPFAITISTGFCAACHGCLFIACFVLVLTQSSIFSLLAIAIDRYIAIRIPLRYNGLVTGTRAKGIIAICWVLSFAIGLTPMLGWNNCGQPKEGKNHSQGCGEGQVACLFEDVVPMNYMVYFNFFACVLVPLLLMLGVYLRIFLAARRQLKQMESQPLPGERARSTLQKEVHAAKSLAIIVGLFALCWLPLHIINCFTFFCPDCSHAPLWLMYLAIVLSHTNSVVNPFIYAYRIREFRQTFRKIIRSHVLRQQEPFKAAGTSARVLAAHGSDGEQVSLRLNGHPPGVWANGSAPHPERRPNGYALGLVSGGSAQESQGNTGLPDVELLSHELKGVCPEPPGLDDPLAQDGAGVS

Compound	Ki [1] [nM]	Ki [2] [nM]	Ki [3] [nM]	Ki [4] [nM]	Stimulation of calcium mobilization (human HMC-1 mast cells [5]; worded as canine mast cells)	Intracellular Ca2+ accumulation / calcium mobilization (human HMC-1 mast cells [5]; human mast cell line HMC-1)	Stimulation of cyclic AMP accumulation (human HMC-1 mast cells [6]; worded as canine mast cells)	Cyclic AMP accumulation (human HMC-1 mast cells [6]; human mast cell line HMC-1)	Functional response to agonist [7]	Increase in intracellular Ca2+ content ([8]; human A2B transfected cells)	Increase in IP3 formation ([9]; NECA at 10 μM, rhA2B transfected HEK 293) [fold]	Antagonism of other adenosine receptor subtypes [10]	Binding to adenosine receptors (literature) (adenosine receptors; Lunell et al.)	Block of adenosine receptors (literature) (adenosine receptors; enprofylline: therapeutic concentration range of 20-50 uM, examined at A1 and A2A only)	Affinity for human A2B versus human A3 adenosine receptors ([11]; competition binding, FIGS. 2A and 2B)	Block of recombinant human A2B adenosine receptors ([11]; therapeutic concentration range of 20-50 μM, FIG. 2 and Table 1)	Block of Ca2+ response induced by 1 μM NECA ([8]; 100 μM antagonist)	Block of increase in IP3 produced by 10 μM NECA ([9]; 250 μM antagonist)
O=C(O)C=Cc1ccc(-c2nc3c([nH]2)c(=O)n(CC2CCCCC2)c(=O)n3CC2CCCCC2)cc1 [BW-A493]	4980 ± 553	1520 ± 797	922 ± 399	198 ± 52	–	–	–	–	–	–	–	–	–	–	–	–	–	–
CCNC(=O)[C@H]1O[C@@H](n2cnc3c(N)ncnc32)[C@H](O)[C@@H]1O [NECA, 5-N-ethylcarboxamidoadenosine]	–	–	–	–	stimulates canine mast cells to mobilize calcium	stimulates human mast cells to mobilize calcium; also recorded: causes intracellular Ca^2+ and cyclic AMP accumulation	stimulates canine mast cells to mobilize calcium and to accumulate cyclic AMP	stimulates human mast cells to mobilize calcium and to accumulate cyclic AMP; also recorded: causes intracellular Ca^2+ and cyclic AMP accumulation	dose-dependent functional response	dose-dependent increase in intracellular Ca^2+ content	3.5	–	–	–	–	–	–	–
CCCn1c(=O)[nH]c(=O)c2[nH]cnc21 [enprofylline]	156000	–	–	–	–	–	–	–	–	–	–	much weaker antagonist of other adenosine receptor subtypes	bind weakly to adenosine receptors	found not to block adenosine receptors	higher affinities for human A2B adenosine receptors than for human A3 adenosine receptors	blocks recombinant human A2B adenosine receptors	totally blocks	able to block the increase in IP3
